# According to ChEMBL document CHEMBL3396992, “Synthesis and biological evaluation of pyrazolylthiazole carboxylic acids as potent anti-inflammatory-antimicrobial agents” (2015):
# Activity calls are given as the source filed them. No cut-off for these calls is given here.
# How the values were obtained:
# Rattus norvegicus [1] = assay: Antiinflammatory activity against carrageenan-induced paw edema male Wistar albino rat assessed as edema volume at 10 mg/kg, ip administered 30 mins prior to carrageenan-challenge measured after 3 hrs (reference value: 1.73 +/- 0.09 mL); format: functional; settings: route intraperitoneal
# Rattus norvegicus [2] = assay: Antiinflammatory activity against carrageenan-induced paw edema male Wistar albino rat assessed as edema volume at 10 mg/kg, ip administered 30 mins prior to carrageenan-challenge measured after 4 hrs (reference value: 1.88 +/- 0.20 mL); format: functional; settings: route intraperitoneal
# Rattus norvegicus [3] = assay: Antiinflammatory activity against carrageenan-induced paw edema male Wistar albino rat at 10 mg/kg, ip administered 30 mins prior to carrageenan-challenge measured after 2 hrs relative to control; format: functional; settings: route intraperitoneal
# Rattus norvegicus [4] = assay: Antiinflammatory activity against carrageenan-induced paw edema male Wistar albino rat at 10 mg/kg, ip administered 30 mins prior to carrageenan-challenge measured after 4 hrs relative to control; format: functional; settings: route intraperitoneal
# Rattus norvegicus [5] = assay: Antiinflammatory activity against carrageenan-induced paw edema male Wistar albino rat assessed as edema volume at 10 mg/kg, ip administered 30 mins prior to carrageenan-challenge measured after 2 hrs (reference value: 1.21 +/- 0.16 mL); format: functional; settings: route intraperitoneal
# Rattus norvegicus [6] = assay: Antiinflammatory activity against carrageenan-induced paw edema male Wistar albino rat at 10 mg/kg, ip administered 30 mins prior to carrageenan-challenge measured after 3 hrs relative to control; format: functional; settings: route intraperitoneal
# Rattus norvegicus [7] = assay: Antiinflammatory activity against carrageenan-induced paw edema male Wistar albino rat at 10 mg/kg, ip administered 30 mins prior to carrageenan-challenge measured after 1 hr relative to control; format: functional; settings: route intraperitoneal
# Rattus norvegicus [8] = assay: Antiinflammatory activity against carrageenan-induced paw edema male Wistar albino rat assessed as edema volume at 10 mg/kg, ip administered 30 mins prior to carrageenan-challenge measured after 1 hr (reference value: 1.11 +/- 0.12 mL); format: functional; settings: route intraperitoneal
# Pseudomonas aeruginosa [9] = assay: microbe, parasite or virus in culture; settings: MTCC 741, 24 h, read-out: DIZ
# Description: (§1) Antimicrobial activity against Pseudomonas aeruginosa MTCC 741 assessed as growth inhibition at 4 mg/ml after 24 hrs by agar well diffusion method
# Bacillus subtilis [10] = assay: Antimicrobial activity against Bacillus subtilis MTCC 121 assessed as growth inhibition after 24 hrs by agar well diffusion method; format: functional
# Staphylococcus aureus [11] = assay: Antimicrobial activity against Staphylococcus aureus MTCC 96 assessed as growth inhibition at 4 mg/ml after 24 hrs by agar well diffusion method; format: functional; settings: for zone of inhibition at 4000 µg/mL: MTCC 96, 24 h, read-out: DIZ
# Bacillus subtilis [12] = assay: Antimicrobial activity against Bacillus subtilis MTCC 121 assessed as growth inhibition at 4 mg/ml after 24 hrs by agar well diffusion method; format: functional; settings: for zone of inhibition at 4000 µg/mL: MTCC 121, 24 h, read-out: DIZ
# Saccharomyces cerevisiae [13] = assay: Antimicrobial activity against Saccharomyces cerevisiae MTCC 170 assessed as growth inhibition at 4 mg/ml after 24 hrs by agar well diffusion method; format: functional; settings: for zone of inhibition at 4000 µg/mL: MTCC 170, 24 h, read-out: DIZ
# Escherichia coli = assay: Antimicrobial activity against Escherichia coli MTCC 1652 assessed as growth inhibition at 4 mg/ml after 24 hrs by agar well diffusion method; format: functional, organism-based
# Candida albicans [14] = assay: Antimicrobial activity against Candida albicans MTCC 3017 assessed as growth inhibition after 24 hrs by agar well diffusion method; format: functional; settings: MTCC 3017, 24 h
# Rattus norvegicus [15] = assay: Antiinflammatory activity against carrageenan-induced paw edema male Wistar albino rat assessed as edema volume at 50 mg/kg, ip administered 30 mins prior to carrageenan-challenge measured after 4 hrs (reference value: 1.88 +/- 0.20 mL); format: functional; settings: route intraperitoneal
# Rattus norvegicus [16] = assay: Antiinflammatory activity against carrageenan-induced paw edema male Wistar albino rat at 50 mg/kg, ip administered 30 mins prior to carrageenan-challenge measured after 3 hrs relative to control; format: functional; settings: route intraperitoneal
# Pseudomonas aeruginosa [17] = settings: MTCC 741, 4 mg/ml
# Description: as §1
# Rattus norvegicus [18] = assay: Antiinflammatory activity against carrageenan-induced paw edema male Wistar albino rat assessed as edema volume at 50 mg/kg, po administered 30 mins prior to carrageenan-challenge measured after 1 hr (reference value: 1.11 +/- 0.12 mL); format: functional
# Rattus norvegicus [19] = assay: Antiinflammatory activity against carrageenan-induced paw edema male Wistar albino rat assessed as edema volume at 50 mg/kg, ip administered 30 mins prior to carrageenan-challenge measured after 3 hrs (reference value: 1.73 +/- 0.09 mL); format: functional; settings: route intraperitoneal
# Rattus norvegicus [20] = assay: Antiinflammatory activity against carrageenan-induced paw edema male Wistar albino rat at 50 mg/kg, ip administered 30 mins prior to carrageenan-challenge measured after 1 hr relative to control; format: functional; settings: route intraperitoneal
# Saccharomyces cerevisiae [21] = assay: Antimicrobial activity against Saccharomyces cerevisiae MTCC 170 assessed as growth inhibition after 24 hrs by agar well diffusion method; format: functional
# Rattus norvegicus [22] = assay: Antiinflammatory activity against carrageenan-induced paw edema male Wistar albino rat at 50 mg/kg, ip administered 30 mins prior to carrageenan-challenge measured after 4 hrs relative to control; format: functional; settings: route intraperitoneal
# Rattus norvegicus [23] = assay: Antiinflammatory activity against carrageenan-induced paw edema male Wistar albino rat at 50 mg/kg, ip administered 30 mins prior to carrageenan-challenge measured after 2 hrs relative to control; format: functional; settings: route intraperitoneal
# Rattus norvegicus [24] = assay: Antiinflammatory activity against carrageenan-induced paw edema male Wistar albino rat assessed as edema volume at 50 mg/kg, ip administered 30 mins prior to carrageenan-challenge measured after 2 hrs (reference value: 1.21 +/- 0.16 mL); format: functional; settings: route intraperitoneal
# Candida albicans [25] = assay: Antimicrobial activity against Candida albicans MTCC 3017 assessed as growth inhibition at 4 mg/ml after 24 hrs by agar well diffusion method; format: functional; settings: MTCC 3017, 24 h, read-out: DIZ
# Staphylococcus aureus [26] = assay: Antimicrobial activity against Staphylococcus aureus MTCC 96 assessed as growth inhibition after 24 hrs by agar well diffusion method; format: functional
SMILES,"MIC (Bacillus subtilis [10]; MTCC 121, 24 h)",zone of inhibition at 4000 µg/mL (Bacillus subtilis [12]),diameter of the inhibition zone (DIZ) (Saccharomyces cerevisiae [13]),diameter of the inhibition zone (DIZ) (Escherichia coli),MIC (Candida albicans [14]),Activity (Rattus norvegicus [15]),diameter of the inhibition zone (DIZ) (Staphylococcus aureus [11]),Activity (Rattus norvegicus [16]),DIZ (Pseudomonas aeruginosa [17]),Activity (Rattus norvegicus [18]),Activity (Rattus norvegicus [19]),Activity (Rattus norvegicus [20]),MIC (Saccharomyces cerevisiae [21]),Activity (Rattus norvegicus [22]),Activity (Rattus norvegicus [23]),Activity (Rattus norvegicus [24]),zone of inhibition at 4000 µg/mL (Candida albicans [25]),MIC (Staphylococcus aureus [26]),also measured
COc1ccc2c(c1)c(CC(=O)O)c(C)n2C(=O)c1ccc(Cl)cc1 [INDOMETHACIN],,,,,,,,,,,,,,,,,,,Activity (Rattus norvegicus [1]): 0.15 mL; Activity (Rattus norvegicus [2]): 0.16 mL; Activity (Rattus norvegicus [3]): 88.42%; Activity (Rattus norvegicus [4]): 91.48%; Activity (Rattus norvegicus [5]): 0.14 mL; Activity (Rattus norvegicus [6]): 91.32%; Activity (Rattus norvegicus [7]): 93.69%; Activity (Rattus norvegicus [8]): 0.07 mL
O=C(O)c1cn(C2CC2)c2cc(N3CCNCC3)c(F)cc2c1=O [CIPROFLOXACIN],6.25 µg/mL,24 mm,,,,,,,,,,,,,,,,,zone of inhibition at 4000 µg/mL (Pseudomonas aeruginosa [9]): 22 mm; zone of inhibition at 4000 µg/mL (Staphylococcus aureus [11]): 24 mm
CCOC(=O)c1sc(-c2cn(-c3ccccc3)nc2-c2ccc(F)cc2)nc1-c1ccc(F)cc1,50 µg/mL,15.6 mm,inactive,inactive,12.5 µg/mL,0.23 mL,inactive,81.5%,inactive,0.16 mL,0.32 mL,85.58%,inactive,87.76%,79.33%,0.25 mL,22.6 mm,inactive,
CCOC(=O)c1sc(-c2cn(-c3ccccc3)nc2-c2ccc(Cl)cc2)nc1-c1ccc(OC)cc1,50 µg/mL,15.3 mm,inactive,inactive,50 µg/mL,0.21 mL,inactive,85.54%,inactive,0.1 mL,0.25 mL,90.99%,inactive,88.92%,71.07%,0.35 mL,15.3 mm,inactive,
CCOC(=O)c1sc(-c2cn(-c3ccccc3)nc2-c2ccc(OC)cc2)nc1-c1ccc(Cl)cc1,50 µg/mL,14.3 mm,inactive,inactive,50 µg/mL,0.53 mL,inactive,78.03%,inactive,0.15 mL,0.38 mL,86.48%,inactive,71.8%,68.59%,0.38 mL,14.3 mm,inactive,
CCOC(=O)c1sc(-c2cn(-c3ccccc3)nc2-c2ccc(F)cc2)nc1-c1ccccc1,,,inactive,inactive,50 µg/mL,0.45 mL,inactive,80.92%,inactive,0.26 mL,0.33 mL,76.57%,inactive,76.06%,73.55%,0.32 mL,16.6 mm,inactive,MIC (Bacillus subtilis [10]): inactive; diameter of the inhibition zone (DIZ) (Bacillus subtilis [12]): inactive
CCOC(=O)c1sc(-c2cn(-c3ccccc3)nc2-c2ccc(OC)cc2)nc1-c1ccccc1,50 µg/mL,15 mm,inactive,inactive,25 µg/mL,0.24 mL,inactive,80.92%,inactive,0.11 mL,0.33 mL,90.19%,inactive,90.95%,83.47%,0.2 mL,18.3 mm,inactive,
CCOC(=O)c1sc(-c2cn(-c3ccccc3)nc2-c2ccccc2)nc1-c1ccc(Cl)cc1,,,inactive,inactive,50 µg/mL,0.22 mL,inactive,87.23%,inactive,0.22 mL,0.24 mL,80.18%,inactive,87.23%,87.6%,0.15 mL,17.3 mm,inactive,MIC (Bacillus subtilis [10]): inactive; diameter of the inhibition zone (DIZ) (Bacillus subtilis [12]): inactive
O=C(O)c1sc(-c2cn(-c3ccccc3)nc2-c2ccccc2)nc1-c1ccc(Cl)cc1,50 µg/mL,17.6 mm,,inactive,50 µg/mL,0.22 mL,,88.43%,inactive,0.14 mL,0.2 mL,87.38%,,88.29%,82.64%,0.21 mL,17.6 mm,,"zone of inhibition at 4000 µg/mL (Saccharomyces cerevisiae [13]): 20.6 mm; zone of inhibition at 4000 µg/mL (Staphylococcus aureus [11]): 21 mm; MIC (Saccharomyces cerevisiae [21]; MTCC 170, 24 h): 25 µg/mL; MIC (Staphylococcus aureus [26]; MTCC 96, 24 h): 25 µg/mL"
CCOC(=O)c1sc(-c2cn(-c3ccccc3)nc2-c2ccc(F)cc2)nc1-c1ccc(Cl)cc1,,,inactive,inactive,50 µg/mL,0.26 mL,inactive,80.34%,inactive,0.17 mL,0.34 mL,84.68%,inactive,86.17%,81.81%,0.22 mL,17.6 mm,inactive,MIC (Bacillus subtilis [10]): inactive; diameter of the inhibition zone (DIZ) (Bacillus subtilis [12]): inactive
O=C(O)c1sc(-c2cn(-c3ccccc3)nc2-c2ccc(Cl)cc2)nc1-c1ccccc1,12.5 µg/mL,22.6 mm,,inactive,6.25 µg/mL,0.54 mL,,60.11%,inactive,0.32 mL,0.69 mL,71.17%,,71.27%,61.98%,0.46 mL,24.6 mm,,"zone of inhibition at 4000 µg/mL (Saccharomyces cerevisiae [13]): 26.6 mm; zone of inhibition at 4000 µg/mL (Staphylococcus aureus [11]): 22.6 mm; MIC (Saccharomyces cerevisiae [21]; MTCC 170, 24 h): 6.25 µg/mL; MIC (Staphylococcus aureus [26]; MTCC 96, 24 h): 25 µg/mL"
